Series [1] can be described thus: pKa of the starting alcohol, in water at 25°C.
Protocol: (§1) An ordinary acid, which is represented by HA, in water is in an equilibrium state as shown below. HA + H2 O ⇄ H3 O^+ (+ A)^- [formula] Equilibrium constant Keq is calculated as follows. Keq =([H3 O^+ (] [A)^- ])/([HA] [H2 O]) [formula] wherein [ ] represents the concentration of each chemical species.
(§2) In ordinary diluted solutions, the concentration of water [H2O] hardly changes and is constantly 55.5M, and the equilibrium constant Keq can be converted into another equation, to show the following acidity constant Ka. Ka =(([A)^- ] [H3 O^+ ])/([HA]) [formula]

Protocol for physchem: as §1, §2

The compound `OC(C(F)(F)F)C(F)(F)F` had a pKa in series [1] of 5.
In turn, `OCCCCCO` [1,5-pentanediol, reference compound] gave a pKa in “physchem” (water) of 17.
Compound `OCC(F)(F)C(F)(F)C(F)(F)C(F)(F)CO` [1H,1H,6H,6H-perfluoro-1,6-hexanediol] came in with a pKa in series [1] of 11.
In “physchem” (water), `OCC(F)(F)F` [2,2,2-trifluoroethanol] gave a pKa of 11.
In the case of `OCC(F)(F)C(F)(F)C(F)(F)CO` [2,2,3,3,4,4-hexafluoro-1,5-pentanediol], the pKa in “physchem” was found to be 11.

The term pKa denotes the negative logarithm of the acid dissociation constant.
